This assay has as its system CEM cells HIV-1 protection, formazan growth assay. The assay can be described thus: NCI AIDS Antiviral Assay. The conditions noted are these: for IC50: measured here: growth of uninfected CEM cells. An outline of the steps:
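Human CEM cells, uninfected and HIV-1-infected, received five drug concentrations, and growth was read by soluble formazan assay. Compounds giving at least 50% protection were retested; reproducible 100% protection defined confirmed active.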

Where “and” joins values, the source holds several entries; their conditions need not be identical. Identical values can stand only once. Calls of active or inactive are those of the source.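 Rule for the calls: active = compounds giving half or more protection of infected cells from virus-caused growth loss, again on retest; inactive = the rest.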 Where a SMILES comes first, the peptide text is derived from it. [ ]: non-standard residue; d: D form. The star is where a group is joined. ξ: configuration not given here. Phe(4-NO2) = N[CH](Cc1ccc([N+](=O)[O-])cc1)C(=O)O; NMeF = CN[C@@H](Cc1ccccc1)C(=O)O; NMeN = CN[C@@H](CC(N)=O)C(=O)O; NMeV = CN[C@H](C(=O)O)C(C)C; ξNMeV = CNC(C(=O)O)C(C)C; Cbz = O=C(OCc1ccccc1)*; Boc = CC(C)(C)OC(=O)*; ξNMeA = CNC(C)C(=O)O; ξV = CC(C)C(N)C(=O)O; OBn = c1ccc(CO*)cc1

As a reminder, the EC50 is the concentration needed to bring the measured effect to its halfway point. Broadly, the IC50 is the concentration that inhibits the measured activity by half. Read a high IC50 as lower potency.

On to `CC(=O)NC(CCC(=O)c1ccc(Cl)cc1Cl)(C(=O)O)C(=O)O`, for which the EC50 was > 200 µM and the IC50 was > 200 µM.

As for `CN1CCN(c2ncc3c(n2)sc2c(=O)n(-c4ccccc4)cnc23)CC1`, the EC50 is > 200 µM and the IC50 is > 200 µM.

In the case of `CC(=O)/C=C/c1cc([N+](=O)[O-])ccc1O`, the EC50 was > 200 µM and the IC50 amounted to 36.3 µM.

`C/C(CC(=O)Nc1ccc([N+](=O)[O-])cc1)=N\NC(N)=O`: the EC50 was > 468 µM and the IC50 is > 468 µM.

On to `C=C[C@@H](C)[C@@H](O)c1c(O)c2c(c3c(CCC)cc(=O)oc13)OC(C)(C)C=C2`, for which the EC50 was > 200 µM and the IC50 amounted to 10.7 µM.

On to `N#Cc1cccc(C(Br)S(=O)(=O)c2ccccc2)c1` (configuration not stated), for which the EC50 is > 77.6 µM and the IC50 came to 72.4 µM.

Turning to `COc1cc(-c2oc3c(OC)c(OC)c(OC)c(OC)c3c(=O)c2OC)cc(OC)c1OC`, the EC50 was > 200 µM and the IC50 is 17.8 µM.

Consider `Cc1n[nH]c2ccccc2c1=O`, for which the EC50 is > 676 µM and the IC50 is 490 µM.

On to `Cc1cn(C2CC(NC(=O)NO[Si](C)(C)C(C)(C)C)C(CO[Si](C)(C)C(C)(C)C)O2)c(=O)[nH]c1=O` (configuration not stated), for which the EC50 is > 200 µM and the half-inhibitory concentration (IC50) worked out at 95.5 µM.

As for `CN1CC=C(c2c(N)nc(N)[nH]c2=O)CC1`, the EC50 was > 200 µM and the half-maximal inhibitory concentration (IC50) was > 200 µM.

`CC1=C(C#N)C2(C(=O)N(C)c3ccccc32)C(C#N)=C(C)N1c1ccccc1`: the EC50 is > 14.1 µM and the IC50 is > 14.1 µM.

As to `CC1(O)OC(=O)C2=C1CCC1C2CCC2(C)C(O)CCC12` (configuration not stated), the EC50 was > 200 µM and the IC50 was > 200 µM.

Turning to `CC1(O)CC2C(CC1SC1CC3C(CC1(C)O)C3(C)C)C2(C)C` (configuration not stated), the EC50 is > 200 µM and the IC50 is > 200 µM.

Regarding `Cc1cccc([P+](Cc2ccccc2)(c2cccc(C)c2)c2cccc(C)c2)c1`, the EC50 is > 200 µM and the IC50 stood at 0.589 µM.

For `COC1OC(C)C(NC(=O)OCC(Cl)(Cl)Cl)C2OC(C)(C)OC12` (configuration not stated), the EC50 is > 331 µM and the IC50 was > 331 µM.

With `O=C(O)c1cccc(S(=O)(=O)NN2C(=O)CSC2c2ccccc2)c1` (configuration not stated), the EC50 is > 200 µM and the IC50 was > 200 µM.

With `CCOC(=O)CNC(=O)C(CC(C)C)NC(=O)C1CCCN1C(=O)OCc1ccccc1` (stereo not drawn) (Cbz-Pro-Leu-Gly-OEt; configuration not given here), the EC50 was > 562 µM and the 50% inhibitory concentration (IC50) was 37.2 µM.

Turning to `c1ccc2c(c1)c1ccccc1c1nc3c(nc21)CCCC3`, the EC50 is > 200 µM and the IC50 is > 200 µM.

As to `CC1(C)OC(COP2OCCO2)[C@H](COP2OCCO2)O1` (some centres not stated), the EC50 was > 200 µM and the IC50 is > 200 µM.

In the case of `CC(=O)/C(=C/c1ccc([N+](=O)[O-])cc1)C(=O)c1ccccc1`, the EC50 is > 87.1 µM and the half-maximal inhibitory concentration (IC50) is 16.6 µM.

As to `CC1CC(C)(C)OC(c2ccco2)O1` (configuration not stated), the EC50 was > 200 µM and the IC50 was > 200 µM.

As to `CC(=O)N(C(=O)CC(=O)N/N=C\c1ccc(Br)c(N(CCC#N)CCC#N)c1)c1ccc(Cl)cc1`, the EC50 is > 200 µM and the IC50 was > 200 µM.

As for `COC(=O)CCC(NC(=O)OC(C)(C)C)C(=O)NC(Cc1ccc([N+](=O)[O-])cc1)C(=O)NCC(=O)OCc1ccccc1` (configuration not stated) (Boc-Glu(OMe)-[Phe(4-NO2)]-Gly-OBn; configuration not given here), the EC50 was > 200 µM and the IC50 was > 200 µM.

Consider `COc1ccc2c(c1)O[C@H]1c3ccc(O)cc3OC[C@@H]21`, for which the outcome was inactive.

Take `Fc1cccc(C2SCc3nc4cc5ccccc5cc4n32)c1` (configuration not stated): the EC50 is > 200 µM and the IC50 is > 200 µM.

As to `COC1=CC23CCCN2CCc2cc4c(cc2C3C1O)OCO4` (configuration not stated), the result was inactive.

Consider `CC(C)C1=CC2=CCC3C(C)(CN)CCCC3(C)C2CC1CCN` (configuration not stated), for which the EC50 is > 100 µM and the IC50 was 1.48 µM.

On to `NC1=NC(c2ccccc2)CC(c2cc(Cl)ccc2O)=N1` (configuration not stated), for which the EC50 is > 200 µM and the IC50 was determined as 12.6 µM.

For `COc1ccc(C)cc1C1CCC(=O)O1` (configuration not stated), the EC50 was > 1200 µM and the 50% inhibitory concentration (IC50) was > 1200 µM.

For `CCCOc1cnc([C@H]2CCC3[C@@H]4CC=C5C[C@@H](OC(C)=O)CC[C@]5(C)C4CC[C@@]32C)s1` (some centres not stated), the EC50 was > 55 µM and the IC50 is > 55 µM.

Regarding `Cn1c(=O)c2c(nc3n(C)c(=O)c4ccccc4n23)n(C)c1=O`, the EC50 was > 200 µM and the IC50 stood at 2.51 µM.

`O=C(Nc1ccccc1)c1cc2cc(N=Nc3ccc(Br)cc3)ccc2oc1=O`: the result was inactive.

`O=C1c2ccccc2-c2cccc3ccc(Cc4ccc5ccccc5c4)c1c23`: the EC50 is > 5.13 µM and the IC50 is > 5.13 µM.

With `Cc1ccc(S(=O)c2sccc2C=O)cc1` (configuration not stated), the EC50 was > 200 µM and the IC50 was 9.77 µM.

In the case of `CCOC(=O)C1(C(=O)OCC)C=C(c2ccccc2)N(C2OC(COC(C)=O)C(OC(C)=O)C(OC(C)=O)C2OC(C)=O)C1=S` (configuration not stated), the EC50 is > 200 µM and the IC50 was found to be 24.5 µM.

On to `CC(=O)OCC1OC(n2c(C)c(N=Nc3ccc(C)cc3)c(C)c(C#N)c2=S)C(OC(C)=O)C(OC(C)=O)C1OC(C)=O` (configuration not stated), for which the EC50 was > 200 µM and the IC50 is > 200 µM.

With `COc1cc(C2C(Cl)C(=O)N2NC(=O)c2ccc(NC(C)=O)cc2)ccc1O` (configuration not stated), the EC50 is > 200 µM and the IC50 is > 200 µM.

With `N#CC1=C(S)N(C2OC(CO)C(O)C(O)C2O)C(c2ccccc2)=CC1c1cccs1` (configuration not stated), the EC50 is > 200 µM and the 50% inhibitory concentration (IC50) was 27.5 µM.

For `CCOC(=O)c1c(-c2ccccc2)nc2c(OC)nccn12`, the EC50 was > 200 µM and the IC50 was found to be 126 µM.

Regarding `Cc1ccc(NC(=O)C(=O)C2C(=O)C3=C(CC2(C)C)NC2C=CC=CC2S3)c(C)c1` (configuration not stated), the EC50 was > 117 µM and the IC50 was > 117 µM.

As for `Cc1cc2ccc(=O)oc2c2c1OC(C)(C)[C@H](OC(=O)C13CCC(C)(C(=O)O1)C3(C)C)[C@@H]2OC(=O)C12CCC(C)(C(=O)O1)C2(C)C` (some centres not stated), the concentration for a half-maximal effect (EC50) is 0.562 µM and the IC50 is 24 µM.

Turning to `COC(=O)C(C)N(C)C(=O)[C@H](CC(N)=O)N(C)C(=O)[C@@H]1CCCN1C(=O)[C@H](C(C)C)N(C)C(=O)C(C(C)C)N(C)C(=O)[C@H](Cc1ccccc1)N(C)C(=O)C(NC(=O)OC(C)(C)C)C(C)C` (some centres not stated) (Boc-[ξV][NMeF][ξNMeV][NMeV]P[NMeN][ξNMeA]-OMe), the EC50 was > 100 µM and the IC50 is 17.8 µM.

Turning to `CS(=O)(=O)OCCCCOS(C)(=O)=O`, the EC50 was > 204 µM and the IC50 was > 204 µM.

For the molecule `OCC12CCCC(CO)(COC1)C2O` (configuration not stated), the EC50 was > 200 µM and the IC50 was > 200 µM.

As for `COc1ccc(-c2c(N3CCOCC3)oc3cc(N4CCOCC4)c(O)cc23)cc1`, the EC50 was > 200 µM and the IC50 worked out at 10.2 µM.

With `CCCCNC(=O)Sc1ccccc1C(=O)NCCS(N)(=O)=O`, the EC50 was found to be 0.141 µM and the IC50 is 50.1 µM.

As to `Nc1[nH]c(=O)[nH]c(=O)c1N=O`, the EC50 was > 200 µM and the half-maximal inhibitory concentration (IC50) was > 200 µM.

In the case of `COc1cc(N=CN(C)C)c2ncccc2c1`, the outcome was inactive.

As for `Cc1cc(N(CCC#N)S(=O)(=O)c2ccccc2)ccc1/C=C1N=C(/C=C/c2ccccc2)OC\1=O`, the result was inactive.

For the molecule `CCC(C)COC(=O)c1ccc(N=Cc2ccc(C=Nc3ccc(C(=O)OCC(C)CC)cc3)cc2)cc1` (configuration not stated), the EC50 was > 2.82 µM and the IC50 is > 2.82 µM.

Turning to `S=C1Cc2c([nH]c3ccccc23)-c2ccccc2N1`, the EC50 is > 200 µM and the half-inhibitory concentration (IC50) was 129 µM.

`COc1ccc2c(c1)[n+]([O-])c(/C(C)=N/NC(=O)c1ccccc1O)c(C)[n+]2[O-]`: the EC50 is > 245 µM and the IC50 is > 245 µM.

As for `COc1ccc(/C(C)=N/NC(N)=O)cc1`, the EC50 was > 174 µM and the IC50 is > 174 µM.

Take `Cc1ccccc1-n1c(=O)c2ncn(C3CCCO3)c2n(-c2ccccc2C)c1=S` (configuration not stated): the EC50 was > 200 µM and the IC50 is > 200 µM.

For the molecule `CCOC(=O)/C(=C\c1cccc(OC)c1)[Se]c1ccccc1`, the EC50 was > 14.5 µM and the IC50 amounted to 7.59 µM.

For `CCCCCCNC(=O)/C(=C\c1ccc(Cl)cc1Cl)NC(=O)c1ccccc1`, the EC50 is > 200 µM and the IC50 was > 200 µM.

Regarding `COc1cc(/C=C2/C(=O)N(C(=O)c3ccccc3O)N=C2C)cc(OC)c1OC`, the EC50 is > 47.9 µM and the IC50 turned out to be 0.24 µM.

Take `O=C(O)c1cc(I)cc(I)c1O.O=[N+]([O-])C1CCC(O)C2[N-]CCCC21.[Cu+]` (configuration not stated): the EC50 is > 200 µM and the IC50 turned out to be 5.62 µM.

In the case of `C=CC1CC1(CO)COc1cc(Cl)nc(N)n1` (configuration not stated), the EC50 is > 200 µM and the IC50 was found to be 141 µM.

Regarding `O=C(Cn1cc(-c2ccccc2)nn1)NC1CCCCC1`, the EC50 is > 200 µM and the IC50 is > 200 µM.

Regarding `CCCCN(CCCC)C(=O)COc1cc2c(O)c3c(O)c(C)c4c(c13)C(=O)C(C)(O/C=C/C(OC)C(C)C(OC(C)=O)C(C)C(O)C(C)C(O)C(C)/C=C/C=C(\C)C(=O)N2)O4` (configuration not stated), the EC50 was > 91.2 µM and the IC50 came to 11 µM.

Turning to `CN(C)NC1=NS(=O)(=O)c2cc3c(=O)n(C)[nH]c3cc2S1`, the EC50 was > 200 µM and the IC50 is 138 µM.

`Cc1c(Cl)cccc1Nc1ncccc1C(=O)O`: the EC50 is > 200 µM and the IC50 was > 100 µM.

Turning to `O=C(Nc1cccc2c(OC(=O)C(Cl)Cl)c(N=Nc3ccc(S(=O)(=O)Nc4nccs4)cc3)cc(N=Nc3ccc(S(=O)(=O)Nc4nccs4)cc3)c12)C(Cl)Cl` (tested in a mixture with another compound), the EC50 is 46.8 µM and > 50.1 µM; the result was inactive.

On to `O/N=C1/CC2(N3CCOCC3)C3CC/C(=N\O)C2CC1(Cc1ccccc1)C3` (configuration not stated), for which the EC50 was > 200 µM and the IC50 was 123 µM.

Take `C[C@H](CCC(=O)O)[C@H]1CC[C@H]2[C@@H]3C(=O)C[C@@H]4C[C@H](O)CC[C@]4(C)[C@H]3C[C@H](O)[C@]12C`: the EC50 was > 200 µM and the IC50 was > 200 µM.

These data come from PubChem BioAssay AID179 (DTP/NCI, 2004).
